From patent publication US20260256792A1, “TREATMENT OF CHRONIC SPONTANEOUS URTICARIA BY ADMINISTERING (R)-2-[3-[4-AMINO-3-(2-FLUORO-4-PHENOXY-PHENYL)PYRAZOLO[3,4-D]PYRIMIDIN-1-YL]PIPERIDINE-1-CARBONYL]-4-METHYL-4-[4-(OXETAN-3-YL)PIPERAZIN-1-YL]PENT-2-ENENITRILE” (priority 2023, published 2026)

Tested on: moderate-to-severe chronic spontaneous urticaria (CSU)
Experiment: Phase 2 CSU study: urticaria activity score over 7 days (UAS7)
Type: in vivo, human
Set-up: key to UAS7 Median / UAS7 Change from baseline Median / UAS7 change from baseline, Q1 / UAS7 change from baseline, Q3 / UAS7 change from baseline, Max / UAS7 Change from baseline LS Mean (SE): UAS7 points; daily UAS score ranges 0–6 points/day, over 7 days
Description: The study comprises a 12 week, randomized, double-blind, placebo-controlled, multi-center, dose-ranging efficacy and safety phase, followed by a 40 week open label extension (OLE) phase (see FIG. 1). The study consists of three phases and an optional OLE phase. […] Clinically, CSU is characterized by the spontaneous and recurrent appearance of pruritic hives. The proposed primary endpoints were the UAS7 at Week 12 in EU and EU reference countries and the ISS7 in the US. Regardless of where a participant was from, all assessments were the same. The UAS7 score is a composite score containing both the HSS7 and the ISS7. This allowed a global assessment of the two key components of urticaria: hives and itch. […] The UAS is a validated PRO measure. […] The daily UAS scores range from 0 to 6 point/day. […] Patients were to complete the UAS using the e-diary. […] The following secondary endpoints were to be analyzed using the same approach as for the primary endpoint: • Change from baseline in UAS7 at Week 4 • Change from baseline in UAS7 at Week 12 (for US and US reference countries) • Change from baseline in ISS7 at Week 12 (except US and US reference countries) • Change from baseline in HSS7 at Week 12 The following responder secondary endpoints were to be analyzed using the Cochran-Mantel-Haenszel test adjusted by region: • Proportion of participants with UAS7<6 at Week 12 • Proportion of participants with UAS7=0 at Week 12 Participants who received selected prohibited medications and/or rescue medications were to be considered as non-responders for time points after the medication usage. For other participants, all available data including those collected during the off-treatment period were to be used to determine the responder/non-responder status. Missing data were to be considered as non-responders.

[1] = Week 8, 400 mg BID, omalizumab-naive participants
[2] = Week 8, 400 mg QPM, ITT population
[3] = Week 8, 400 mg QPM, Omalizumab-Naïve
[4] = Week 8, 400 mg QPM, Prior Omalizumab Use
[5] = Week 8, 400 mg QPM, omalizumab-naive participants
[6] = Week 8, 400 mg TID, ITT population
[7] = Week 8, 400 mg TID, Omalizumab-Naïve
[8] = Week 8, 400 mg TID, Prior Omalizumab Use
[9] = Week 8, 400 mg TID, omalizumab-naive participants
[10] = Week 9, 400 mg BID, ITT population
[11] = Week 9, 400 mg BID, Omalizumab-Naïve
[12] = Week 9, 400 mg BID, Prior Omalizumab Use
[13] = Week 9, 400 mg BID, omalizumab-naive participants
[14] = Week 9, 400 mg QPM, ITT population
[15] = Week 9, 400 mg QPM, Omalizumab-Naïve

`CC(C)(C=C(C#N)C(=O)N1CCC[C@@H](n2nc(-c3ccc(Oc4ccccc4)cc3F)c3c(N)ncnc32)C1)N1CCN(C2COC2)CC1` [rilzabrutinib, (R)-2-[3-[4-amino-3-(2-fluoro-4-phenoxy-phenyl)pyrazolo[3,4-d]pyrimidin-1-yl]piperidine-1-carbonyl]-4-methyl-4-[4-(oxetan-3-yl)piperazin-1-yl]pent-2-enenitrile] was tested, and the “RRD (%) for rilzabrutinib vs. placebo, UAS7 reduction of 10 points or more” value (from here on “RRD (%) … UAS7 reduction of 10 points or more”) [1] was 24.0 %, the “Responder, UAS7 reduction from baseline of 10 points or more” value [1] was 21 (60.0) n (%) and the “Non-responder, UAS7 reduction from baseline of 10 points or more” value (from here on “Non-responder, UAS7 reduction”) [2] was 21 (55.3) n (%). For the same compound, the “OR for rilzabrutinib vs. placebo, UAS7 reduction of 10 points or more” value [2] was 1.257, the “RRD (%) … UAS7 reduction of 10 points or more” value [2] was 5.3 % and the “Responder, UAS7 reduction from baseline of 10 points or more” value [2] was 17 (44.7) n (%). For the same compound, the “UAS7 Change from baseline Mean (SD)” value [3] was −10.63 (9.70), the “UAS7 Change from baseline Median” value [3] was −10.80 and the “UAS7 Median” value [3] was 21.00. The “UAS7 Percent change from baseline Mean (SD)” value (“UAS7 Percent change … (SD)” below) [3] was −33.68 (30.26) %, the “UAS7 Percent change from baseline Median” value [3] was −31.82% and the “UAS7 Change from baseline Mean (SD)” value [4] was −25.00 (NC). The “UAS7 Change from baseline Median” value [4] was −25.00, the “UAS7 Mean (SD)” value [4] was 16.00 (NC) and the “UAS7 Median” value [4] was 16.00. For the same compound, the “UAS7 Percent change … (SD)” value [4] was −60.98 (NC) %, the “UAS7 Percent change from baseline Median” value [4] was −60.98% and the “Non-responder, UAS7 reduction” value [5] was 21 (56.8) n (%). For the same compound, the “OR for rilzabrutinib vs. placebo, UAS7 reduction of 10 points or more” value [5] was 1.331, the “RRD (%) … UAS7 reduction of 10 points or more” value [5] was 6.6 % and the “Responder, UAS7 reduction from baseline of 10 points or more” value [5] was 16 (43.2) n (%). The “Non-responder, UAS7 reduction” value [6] was 14 (34.1) n (%), the “RRD (%) … UAS7 reduction of 10 points or more” value [6] was 23.2 % and the “Responder, UAS7 reduction from baseline of 10 points or more” value [6] was 27 (65.9) n (%). For the same compound, the “UAS7 Change from baseline Mean (SD)” value [7] was −16.89 (10.13), the “UAS7 Change from baseline Median” value [7] was −15.17 and the “UAS7 Mean (SD)” value [7] was 13.36 (9.81). For the same compound, the “UAS7 Median” value [7] was 14.00, the “UAS7 Percent change … (SD)” value [7] was −55.66 (31.25) % and the “UAS7 Percent change from baseline Median” value [7] was −55.83%. The “UAS7 Change from baseline Median” value [8] was −25.58, the “UAS7 Mean (SD)” value [8] was 7.50 (11.26) and the “UAS7 Median” value [8] was 3.00. For the same compound, the “UAS7 Percent change … (SD)” value [8] was −78.96 (25.66) %, the “UAS7 Percent change from baseline Median” value [8] was −84.90% and the “Non-responder, UAS7 reduction” value [9] was 13 (37.1) n (%). The “OR for rilzabrutinib vs. placebo, UAS7 reduction of 10 points or more” value [9] was 2.815, the “RRD (%) … UAS7 reduction of 10 points or more” value [9] was 25.7 % and the “Responder, UAS7 reduction from baseline of 10 points or more” value [9] was 22 (62.9) n (%). For the same compound, the “Non-responder, UAS7 reduction” value [10] was 20 (48.8) n (%), the “OR for rilzabrutinib vs. placebo, UAS7 reduction of 10 points or more” value [10] was 1.471 and the “RRD (%) … UAS7 reduction of 10 points or more” value [10] was 10.6 %. For the same compound, the “Responder, UAS7 reduction from baseline of 10 points or more” value [10] was 21 (51.2) n (%), the “UAS7 Change from baseline Median” value [11] was −17.00 and the “UAS7 Mean (SD)” value [11] was 14.64 (14.43). The “UAS7 Percent change … (SD)” value [11] was −53.27 (40.38) %, the “UAS7 Percent change from baseline Median” value [11] was −59.77% and the “UAS7 Change from baseline Mean (SD)” value [12] was −20.83 (19.15). For the same compound, the “UAS7 Change from baseline Median” value [12] was −27.00, the “UAS7 Mean (SD)” value [12] was 11.17 (15.78) and the “UAS7 Median” value [12] was 1.00. The “UAS7 Percent change … (SD)” value [12] was −60.63 (52.86) %, the “UAS7 Percent change from baseline Median” value [12] was −97.62% and the “Non-responder, UAS7 reduction” value [13] was 17 (48.6) n (%). The “OR for rilzabrutinib vs. placebo, UAS7 reduction of 10 points or more” value [13] was 1.764, the “RRD (%) … UAS7 reduction of 10 points or more” value [13] was 16.0 % and the “Responder, UAS7 reduction from baseline of 10 points or more” value [13] was 18 (51.4) n (%). For the same compound, the “Non-responder, UAS7 reduction” value [14] was 20 (52.6) n (%), the “OR for rilzabrutinib vs. placebo, UAS7 reduction of 10 points or more” value [14] was 1.452 and the “RRD (%) … UAS7 reduction of 10 points or more” value [14] was 8.5 %. The “Responder, UAS7 reduction from baseline of 10 points or more” value [14] was 18 (47.4) n (%), the “UAS7 Change from baseline Median” value [15] was −11.00 and the “UAS7 Mean (SD)” value [15] was 20.25 (10.25). For the same compound, the “UAS7 Median” value [15] was 19.33, the “UAS7 Percent change … (SD)” value [15] was −36.26 (27.83) % and the “UAS7 Percent change from baseline Median” value [15] was −32.58%.
